# Measurements from US9695155B2, “Herbicidal substituted pyrimidinyloxy benzene compounds” (E. I. DU PONT DE NEMOURS AND COMPANY, priority 2013, dated 2017).
# Legend:
# [1] = test system: barnyardgrass; assay: Test B flooded paddy test; format: in vivo, Echinochloa crus-galli; details: Flood, 250 g ai/ha; 0 to 100 scale where 0 is no effect and 100 is complete control
# Outline: (§1)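 Greenhouse flooded-pot test: compounds dosed into 3 cm standing water over 2-leaf plants, flood held constant. Rated visually after 13–15 days on 0–100 (complete control = 100); a dash marks no test result.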
# [2] = test system: wheat; assay: Test A preemergence; format: in vivo, Triticum aestivum; details: for Wheat plant response rating (0 to 100 scale): 125 g ai/ha; for Wheat plant response rating: 500 g ai/ha, 0 to 100 scale where 0 is no effect and 100 is complete control
# Outline: (§2)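 Compounds in non-phytotoxic solvent with surfactant applied as soil spray preemergence, or postemergence to plants 2-10 cm at one- to two-leaf stage, in loam/sand. After approximately 10 days in greenhouse, injury rated visually versus untreated controls, 0 (no effect) to 100 (complete control).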
# [3] = test system: rice; assay: Test B flooded paddy test; format: in vivo, Oryza sativa; details: Flood, 250 g ai/ha; 0 to 100 scale where 0 is no effect and 100 is complete control
# Outline: as §1
# [4] = test system: Heteranthera limosa; assay: Test B flooded paddy test; format: in vivo; details: Flood, 250 g ai/ha; 0 to 100 scale where 0 is no effect and 100 is complete control
# Outline: as §1
# [5] = test system: velvetleaf; assay: Test A postemergence; format: in vivo, Abutilon theophrasti
# Outline: as §2
# [6] = test system: large (Lg) crabgrass; assay: Test A preemergence; format: in vivo, Digitaria sanguinalis; details: for Crabgrass, Large plant response rating (0 to 100 scale): 125 g ai/ha; for Crabgrass, Large plant response rating: 500 g ai/ha, 0 to 100 scale where 0 is no effect and 100 is complete control
# Outline: as §2
# [7] = test system: large (Lg) crabgrass; assay: Test A postemergence; format: in vivo, Digitaria sanguinalis
# Outline: as §2
# [8] = test system: barnyardgrass; assay: Test A preemergence; format: in vivo, Echinochloa crus-galli; details: for Barnyardgrass plant response rating (0 to 100 scale, 0 is no effect, 100 is complete control): 125 g ai/ha; for Barnyardgrass plant response rating: 500 g ai/ha, 0 to 100 scale where 0 is no effect and 100 is complete control
# Outline: as §2
# [9] = test system: corn; assay: Test A preemergence; format: in vivo, Zea mays; details: for Corn plant response rating (0 to 100 scale): 125 g ai/ha; for Corn plant response rating: 500 g ai/ha, 0 to 100 scale where 0 is no effect and 100 is complete control
# Outline: as §2
# [10] = test system: pigweed; assay: Test A postemergence; format: in vivo, Amaranthus retroflexus
# Outline: as §2
# [11] = test system: giant foxtail; assay: Test A preemergence; format: in vivo, Setaria faberii; details: for Foxtail, Giant plant response rating (0 to 100 scale): 125 g ai/ha; for Foxtail, Giant plant response rating: 500 g ai/ha, 0 to 100 scale where 0 is no effect and 100 is complete control
# Outline: as §2
# [12] = test system: velvetleaf; assay: Test A preemergence; format: in vivo, Abutilon theophrasti; details: for Velvetleaf plant response rating (0 to 100 scale): 125 g ai/ha; for Velvetleaf plant response rating: 500 g ai/ha, 0 to 100 scale where 0 is no effect and 100 is complete control
# Outline: as §2
# [13] = test system: wheat; assay: Test A postemergence; format: in vivo, Triticum aestivum
# Outline: as §2
# [14] = test system: sedge, umbrella; assay: Test B flooded paddy test; format: in vivo, Cyperus difformis; details: Flood, 250 g ai/ha; 0 to 100 scale where 0 is no effect and 100 is complete control
# Outline: as §1
# [15] = test system: morningglory; assay: Test A postemergence; format: in vivo, Ipomoea spp.
# Outline: as §2
# [16] = test system: pigweed; assay: Test A preemergence; format: in vivo, Amaranthus retroflexus; details: for Pigweed plant response rating (0 to 100 scale): 125 g ai/ha; for Pigweed plant response rating: 500 g ai/ha, 0 to 100 scale where 0 is no effect and 100 is complete control
# Outline: as §2
# [17] = test system: morningglory; assay: Test A preemergence; format: in vivo, Ipomoea spp.; details: for Morningglory plant response rating (0 to 100 scale): 125 g ai/ha; for Morningglory plant response rating: 500 g ai/ha, 0 to 100 scale where 0 is no effect and 100 is complete control
# Outline: as §2
# [18] = test system: giant foxtail; assay: Test A postemergence; format: in vivo, Setaria faberii
# Outline: as §2
# [19] = test system: barnyardgrass; assay: Test A postemergence; format: in vivo, Echinochloa crus-galli
# Outline: as §2
# [20] = test system: corn; assay: Test A postemergence; format: in vivo, Zea mays
# Outline: as §2
# [21] = 125 g ai/ha, 0 to 100 scale, 0 no effect, 100 complete control
# [22] = 500 g ai/ha, 0 to 100 scale where 0 is no effect and 100 is complete control
# [23] = 125 g ai/ha, 0 to 100 scale where 0 is no effect and 100 is complete control
Structure (SMILES),"Plant response rating, Barnyardgrass [1]",Wheat plant response rating (0 to 100 scale) [2],Wheat plant response rating [2],"Plant response rating, Rice [3]","Plant response rating, Ducksalad [4]","Plant response rating, Velvetleaf [5, 22]","Crabgrass, Large plant response rating (0 to 100 scale) [6]","Crabgrass, Large plant response rating [6]","Plant response rating, Crabgrass, Large [7, 22]","Barnyardgrass plant response rating (0 to 100 scale, 0 is no effect, 100 is complete control) [8]",Barnyardgrass plant response rating [8],Corn plant response rating (0 to 100 scale) [9],Corn plant response rating [9],"Plant response rating, Pigweed [10, 22]","Foxtail, Giant plant response rating (0 to 100 scale) [11]","Foxtail, Giant plant response rating [11]",Velvetleaf plant response rating (0 to 100 scale) [12],Velvetleaf plant response rating [12],"Plant response rating, Wheat [13, 22]","Plant response rating, Sedge, Umbrella [14]",other results
Clc1cnc(Oc2cccc(-c3ncco3)c2-n2cc(Br)cn2)nc1 [Compound 287],0,0,0,0,0,20,0,70,20,0,0,0,0,50,0,40,0,0,0,0,"Plant response rating, Velvetleaf [5, 21]: 10; Plant response rating, Crabgrass, Large [7, 21]: 10; Plant response rating, Pigweed [10, 21]: 30; Plant response rating, Wheat [13, 21]: 0; Plant response rating, Morningglory [15, 21]: 10; Plant response rating, Morningglory [15, 22]: 20; Pigweed plant response rating (0 to 100 scale) [16]: 0; Pigweed plant response rating [16]: 100; Morningglory plant response rating (0 to 100 scale) [17]: 0; Morningglory plant response rating [17]: 0; Plant response rating, Foxtail, Giant [18, 21]: 0; Plant response rating, Foxtail, Giant [18, 22]: 0; Plant response rating, Barnyardgrass [19, 21]: 0; Plant response rating, Barnyardgrass [19, 22]: 0; Plant response rating, Corn [20, 21]: 0; Plant response rating, Corn [20, 22]: 0"
N#Cc1cc(F)cc(Oc2ncc(Cl)cn2)c1-n1cc(Br)cn1 [Compound 238],0,0,30,0,70,100,100,100,90,70,100,0,90,100,100,100,70,90,60,90,"Velvetleaf plant response rating [5, 23]: 60; Crabgrass, Large plant response rating [7, 23]: 60; Pigweed plant response rating [10, 23]: 100; Wheat plant response rating [13, 23]: 0; Morningglory plant response rating [15, 23]: 40; Plant response rating, Morningglory [15, 22]: 60; Pigweed plant response rating (0 to 100 scale) [16]: 100; Pigweed plant response rating [16]: 100; Morningglory plant response rating (0 to 100 scale) [17]: 10; Morningglory plant response rating [17]: 100; Foxtail, Giant plant response rating [18, 23]: 60; Plant response rating, Foxtail, Giant [18, 22]: 90; Barnyardgrass plant response rating [19, 23]: 40; Plant response rating, Barnyardgrass [19, 22]: 100; Corn plant response rating [20, 23]: 0; Plant response rating, Corn [20, 22]: 80"
